Experiments:
Assay type in all cases: cell-based
human Nav1.7 (hNav1.7) [1] = biological target: T1, human Nav1.7 (hNav1.7) (Homo sapiens, UniProt Q15858); assay: hNav1.7 slow inactivation block, manual patchclamp; conditions: HEK 293F cells stably expressing hNav1.7, slow inactivation induced in approximately 50% of channels
T1 construct: expressed in transfected cells
From the text: (§1) The generation of HEK 293F cell lines stably expressing human Nav1.7 (h Nav1.7), human Nav1.5 (hNav1.5) and rat Nav1.2 (r Nav1.2) was achieved by subcloning SCN9A, SCN5A, and SCN2A genes into inducible expression vectors followed by transfection into target cells using standard techniques. In the case of h Nav1.7, an expression vector encoding the human Navβ1 auxiliary subunit gene, SCN1B, was co-transfected with the expression vector bearing the SCN9A gene. Clones were selected using appropriate selection agents (0.3 mg/mL Zeocin and 0.8 mg/mL Geneticin) and maintained in Dulbecco's Modified Eagle medium, 10% fetal bovine serum, 1% non-essential amino acids to ˜80% confluence at 37° C. in a humidified incubator with 95% atmosphere and 5% CO2.
(§2) On the day of each experiment, cells that were grown to 80% confluence in a T75 flask were harvested for use on PatchXpress (Molecular Devices, CA, USA). Following a recovery period at 37° C. in a humidified incubator with 95% atmosphere and 5% CO2 in Dulbecco's Modified Eagle Medium, the media was replaced with an external recording solution containing (in mM): 90 TEACl, 50 NaCl, 1.8 CaCl2, 1 MgCl2, 10 HEPES, 10 glucose, adjusted to pH 7.4 with TEAOH and 300 mOsm with sucrose. The internal recording solution contained (in mM): 129 CsF, 2 MgCl2, 11 EGTA, 10 HEPES, 6 NaCl, 3 Na2ATP adjusted to pH 7.2 with CsOH and 280 mOsm with sucrose. The automated liquid handling facility of PatchXpress dispensed cells and added compound. Modulation of Nav1.7 channels by compounds was assessed by promoting the channels into the inactivated state using a conditioning voltage pulse of variable amplitude, followed by a brief hyperpolarizing pulse with a subsequent depolarized voltage step to measure the current amplitude in the presence and absence of compound.
(§3) In some cases, the potency of compounds was measured using either the Patchliner automated patch clamp platform (Nanion) or manual patch clamp techniques. Both approaches allowed the compounds to be characterized based upon the ability of a compound to modulate use- and/or state-dependence across human Nav1.7 (hNav1.7), human Nav1.5 (hNav1.5) and rat Nav1.2 (rNav1.2). The potency data is tabulated in Table 2 and is represented by six data fields. Three of the six fields represent potency data measured with the Patchliner automated platform under varying use- and state-dependent electrophysiology protocols similar to the PatchXpress protocols detailed above. For example, the second data column describes the potency of compounds in their ability to block 50% of Nav1.7 channels when the channel is repetitively activated by depolarizing voltage potentials to induce slow inactivation in approximately 50% of channels (Table 2: h Nav1.7: IC50 Slow Inactivation Block, Automated Patchclamp). The next three data fields describe the data generated from manual patchclamp electrophysiology measurements using similar methods to those employed for automated patchclamp studies.

human Nav1.7 (hNav1.7) [2] = biological target: T1, human Nav1.7 (hNav1.7); assay: hNav1.7 slow inactivation block, automated patchclamp; conditions: HEK 293F cells stably expressing hNav1.7, slow inactivation induced in approximately 50% of channels
From the text: as §1, §2, §3

rat Nav1.2 (rNav1.2) [3] = biological target: T2, rat Nav1.2 (rNav1.2) (Rattus norvegicus, UniProt P04775); assay: rNav1.2 slow inactivation block, manual patchclamp; conditions: HEK 293F cells stably expressing rNav1.2
T2 construct: expressed in transfected cells
From the text: as §1, §2, §3

rat Nav1.2 (rNav1.2) [4] = biological target: T2, rat Nav1.2 (rNav1.2); assay: rNav1.2 slow inactivation block, automated patchclamp; conditions: HEK 293F cells stably expressing rNav1.2
From the text: as §1, §2, §3

human Nav1.5 (hNav1.5) [5] = biological target: T3, human Nav1.5 (hNav1.5) (Homo sapiens, UniProt Q14524); assay: hNav1.5 slow inactivation block, manual patchclamp; conditions: HEK 293F cells stably expressing hNav1.5
T3 construct: expressed in transfected cells
From the text: as §1, with “CO2. […]” for “CO2.”
as §2, §3

human Nav1.5 (hNav1.5) [6] = biological target: T3, human Nav1.5 (hNav1.5); assay: hNav1.5 slow inactivation block, automated patchclamp; conditions: HEK 293F cells stably expressing hNav1.5
From the text: as §1
Inhibition of the TTX-resistant Nav1.5 sodium channel, a key cardiac ion channel, can have profound effects on the duration and amplitude of the cardiac action potential and can result in arrhythmias and other heart malfunctions. To assess the potential cardiac liability of compounds at an early stage in the drug discovery process, a Nav1.5 sodium channel screening assay can be performed on Molecular Device's PatchXpress™ automated electrophysiology platform. Under voltage-clamp conditions, Nav1.5 currents can be recorded from HEK cells expressing the human Nav1.5 channel in the absence and presence of increasing concentrations of the test compound to obtain an IC50 value. The external recording solution can contain (in mM): 90 TEACl, 50 NaCl, 1.8 CaCl, 1 MgCl2, 10 HEPES, 10 glucose, adjusted to pH 7.4 with TEA-OH and to 300 mOsm with sucrose (if necessary), while the internal patch pipette solution contained (in mM): 129 CsF, 2 MgCl2, 11 EGTA, 10 HEPES, 3 Na2ATP adjusted to pH 7.2 with CsOH and to 290 mOsm with sucrose (if necessary). Nav1.5 channel currents can be evoked using a cardiac action potential waveform at 1 Hz, digitized at 31.25 kHz and low-pass filtered at 12 kHz.
as §2
In some cases, the potency of compounds was measured using either the Patchliner automated patch clamp platform (Nanion) or manual patch clamp techniques. Both approaches allowed the compounds to be characterized based upon the ability of a compound to modulate use- and/or state-dependence across human Nav1.7 (hNav1.7), human Nav1.5 (hNav1.5) and rat Nav1.2 (rNav1.2). The potency data is tabulated in Table 2 and is represented by six data fields. Three of the six fields represent potency data measured with the Patchliner automated platform under varying use- and state-dependent electrophysiology protocols similar to the PatchXpress protocols detailed above. […]

T2 sequence (P04775 whole entry): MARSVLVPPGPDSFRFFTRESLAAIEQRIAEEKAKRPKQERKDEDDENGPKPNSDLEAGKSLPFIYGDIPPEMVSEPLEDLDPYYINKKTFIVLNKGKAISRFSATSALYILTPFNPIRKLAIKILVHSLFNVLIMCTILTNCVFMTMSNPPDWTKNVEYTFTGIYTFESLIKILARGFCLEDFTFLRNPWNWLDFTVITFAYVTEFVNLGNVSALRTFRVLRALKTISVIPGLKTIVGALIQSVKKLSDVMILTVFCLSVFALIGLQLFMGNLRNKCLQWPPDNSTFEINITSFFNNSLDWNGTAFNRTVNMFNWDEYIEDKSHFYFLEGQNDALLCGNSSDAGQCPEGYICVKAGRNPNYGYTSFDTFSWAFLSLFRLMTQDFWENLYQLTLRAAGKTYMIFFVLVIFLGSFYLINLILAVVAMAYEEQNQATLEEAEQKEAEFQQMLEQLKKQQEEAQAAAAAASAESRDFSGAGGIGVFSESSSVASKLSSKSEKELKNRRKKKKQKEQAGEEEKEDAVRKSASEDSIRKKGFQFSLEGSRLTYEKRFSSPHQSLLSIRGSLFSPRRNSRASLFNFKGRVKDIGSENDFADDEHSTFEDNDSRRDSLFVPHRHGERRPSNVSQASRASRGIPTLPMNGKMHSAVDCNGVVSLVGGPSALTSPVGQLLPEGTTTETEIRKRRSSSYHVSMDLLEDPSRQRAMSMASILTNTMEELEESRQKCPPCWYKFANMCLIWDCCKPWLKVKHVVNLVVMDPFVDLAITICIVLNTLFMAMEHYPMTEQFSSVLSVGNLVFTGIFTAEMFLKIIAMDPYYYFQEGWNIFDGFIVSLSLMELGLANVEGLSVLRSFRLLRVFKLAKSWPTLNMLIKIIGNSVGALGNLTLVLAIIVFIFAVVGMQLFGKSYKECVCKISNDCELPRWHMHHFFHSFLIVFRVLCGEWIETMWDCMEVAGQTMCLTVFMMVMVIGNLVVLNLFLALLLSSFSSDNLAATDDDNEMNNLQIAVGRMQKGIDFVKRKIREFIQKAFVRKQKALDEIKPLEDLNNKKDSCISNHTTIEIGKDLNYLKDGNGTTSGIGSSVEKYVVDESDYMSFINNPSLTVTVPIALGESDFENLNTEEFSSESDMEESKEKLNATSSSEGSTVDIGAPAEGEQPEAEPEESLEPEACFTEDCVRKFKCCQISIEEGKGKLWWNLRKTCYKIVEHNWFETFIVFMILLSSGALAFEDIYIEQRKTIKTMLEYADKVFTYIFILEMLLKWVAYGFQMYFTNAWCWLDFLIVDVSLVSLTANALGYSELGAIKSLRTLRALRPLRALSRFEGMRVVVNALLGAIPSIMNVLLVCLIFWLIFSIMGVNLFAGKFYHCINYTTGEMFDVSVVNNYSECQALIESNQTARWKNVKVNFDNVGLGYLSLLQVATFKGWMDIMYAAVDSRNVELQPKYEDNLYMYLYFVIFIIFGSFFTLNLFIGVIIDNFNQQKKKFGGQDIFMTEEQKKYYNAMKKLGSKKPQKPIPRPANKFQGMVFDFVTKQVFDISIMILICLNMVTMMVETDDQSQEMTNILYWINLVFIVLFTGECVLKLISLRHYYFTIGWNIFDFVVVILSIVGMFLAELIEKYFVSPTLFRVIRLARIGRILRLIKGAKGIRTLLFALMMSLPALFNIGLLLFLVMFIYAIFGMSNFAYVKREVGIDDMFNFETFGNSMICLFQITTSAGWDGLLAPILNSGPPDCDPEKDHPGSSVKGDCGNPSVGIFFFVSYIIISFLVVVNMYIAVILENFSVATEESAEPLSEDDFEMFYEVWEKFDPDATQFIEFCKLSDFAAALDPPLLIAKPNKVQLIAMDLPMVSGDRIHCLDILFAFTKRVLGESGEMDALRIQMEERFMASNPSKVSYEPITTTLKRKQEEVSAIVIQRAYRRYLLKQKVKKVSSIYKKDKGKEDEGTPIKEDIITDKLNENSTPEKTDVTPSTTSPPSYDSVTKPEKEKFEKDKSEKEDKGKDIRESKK
T3 sequence (Q14524 whole entry): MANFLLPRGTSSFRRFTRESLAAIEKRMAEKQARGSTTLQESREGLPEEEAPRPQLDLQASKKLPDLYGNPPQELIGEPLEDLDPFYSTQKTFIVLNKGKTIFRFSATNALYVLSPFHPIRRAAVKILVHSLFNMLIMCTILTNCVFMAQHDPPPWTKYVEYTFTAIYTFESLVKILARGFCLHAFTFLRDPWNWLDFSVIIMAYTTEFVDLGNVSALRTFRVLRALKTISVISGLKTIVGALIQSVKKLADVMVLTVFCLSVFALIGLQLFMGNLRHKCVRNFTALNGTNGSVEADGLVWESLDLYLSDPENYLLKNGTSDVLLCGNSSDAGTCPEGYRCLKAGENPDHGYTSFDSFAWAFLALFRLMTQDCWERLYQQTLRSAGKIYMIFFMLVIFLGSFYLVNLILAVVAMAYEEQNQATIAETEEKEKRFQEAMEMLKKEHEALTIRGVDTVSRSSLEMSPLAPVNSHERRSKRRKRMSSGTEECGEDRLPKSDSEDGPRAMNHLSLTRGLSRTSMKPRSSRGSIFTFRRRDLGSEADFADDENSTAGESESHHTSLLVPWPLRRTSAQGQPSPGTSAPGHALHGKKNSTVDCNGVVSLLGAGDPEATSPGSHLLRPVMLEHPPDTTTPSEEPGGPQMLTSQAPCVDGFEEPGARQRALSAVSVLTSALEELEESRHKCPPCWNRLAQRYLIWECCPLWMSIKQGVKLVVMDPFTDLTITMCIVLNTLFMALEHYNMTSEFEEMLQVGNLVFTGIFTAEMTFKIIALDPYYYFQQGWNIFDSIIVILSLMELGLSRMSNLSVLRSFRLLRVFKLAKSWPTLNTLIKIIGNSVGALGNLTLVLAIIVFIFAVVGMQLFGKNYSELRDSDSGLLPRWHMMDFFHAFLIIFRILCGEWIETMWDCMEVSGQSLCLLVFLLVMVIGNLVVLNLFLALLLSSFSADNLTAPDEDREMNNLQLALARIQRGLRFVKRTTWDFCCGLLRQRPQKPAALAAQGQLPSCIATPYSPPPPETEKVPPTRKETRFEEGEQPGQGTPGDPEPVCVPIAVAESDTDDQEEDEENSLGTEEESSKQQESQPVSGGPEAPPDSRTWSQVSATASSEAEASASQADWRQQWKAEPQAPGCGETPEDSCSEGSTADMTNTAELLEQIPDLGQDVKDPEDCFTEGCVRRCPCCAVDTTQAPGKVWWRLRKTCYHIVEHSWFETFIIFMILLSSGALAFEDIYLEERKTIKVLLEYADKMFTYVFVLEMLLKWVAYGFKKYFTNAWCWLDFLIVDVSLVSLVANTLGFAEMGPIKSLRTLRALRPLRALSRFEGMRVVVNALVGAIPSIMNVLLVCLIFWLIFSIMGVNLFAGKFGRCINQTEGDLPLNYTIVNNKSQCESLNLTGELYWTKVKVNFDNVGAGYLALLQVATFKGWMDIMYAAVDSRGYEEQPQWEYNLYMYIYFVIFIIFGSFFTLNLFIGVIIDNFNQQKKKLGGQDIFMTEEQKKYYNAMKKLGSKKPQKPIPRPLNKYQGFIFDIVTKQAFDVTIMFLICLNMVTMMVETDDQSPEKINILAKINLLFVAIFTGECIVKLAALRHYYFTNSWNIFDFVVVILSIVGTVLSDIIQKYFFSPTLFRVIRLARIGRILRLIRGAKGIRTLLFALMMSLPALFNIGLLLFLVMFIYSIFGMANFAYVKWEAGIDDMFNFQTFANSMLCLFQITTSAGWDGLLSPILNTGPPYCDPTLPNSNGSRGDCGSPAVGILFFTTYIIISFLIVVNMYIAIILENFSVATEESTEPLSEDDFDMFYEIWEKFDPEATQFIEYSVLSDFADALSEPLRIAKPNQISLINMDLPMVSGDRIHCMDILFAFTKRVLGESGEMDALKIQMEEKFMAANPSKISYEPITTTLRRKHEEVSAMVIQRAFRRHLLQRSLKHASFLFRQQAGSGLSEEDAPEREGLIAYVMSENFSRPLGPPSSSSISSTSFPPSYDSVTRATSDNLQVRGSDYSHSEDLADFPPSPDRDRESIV

For `O=C(NCc1cc(F)c(Oc2cc(C(F)(F)F)cc(C(F)(F)F)c2)cc1F)[C@@H]1CCCN1` [Compound 4, (2S)-N-({4-[3,5-bis(trifluoromethyl)phenoxy]-2,5-difluorophenyl}methyl)pyrrolidine-2-carboxamide], the IC50 (human Nav1.7 (hNav1.7) [1]) was 217 nM, the IC50 (human Nav1.7 (hNav1.7) [2]) was 977 nM and the IC50 (rat Nav1.2 (rNav1.2) [3]) was 146 nM. The IC50 (rat Nav1.2 (rNav1.2) [4]) was 1870 nM and the IC50 (human Nav1.5 (hNav1.5) [5]) was 116 nM.

With `O=C(NCc1cc(F)c(Oc2cc(C(F)(F)F)cc(C(F)(F)F)c2)cc1F)c1ncns1` [Compound 17, N-({4-[3,5-bis(trifluoromethyl)phenoxy]-2,5-difluorophenyl}methyl)-1,2,4-thiadiazole-5-carboxamide] the IC50 (human Nav1.7 (hNav1.7) [1]) was 470 nM, the IC50 (human Nav1.7 (hNav1.7) [2]) was 8430 nM and the IC50 (rat Nav1.2 (rNav1.2) [3]) was 479 nM. The IC50 (rat Nav1.2 (rNav1.2) [4]) was 18700 nM and the IC50 (human Nav1.5 (hNav1.5) [5]) was roughly 2500 nM.

Work on `O=S(=O)(Nc1ncns1)c1cc(F)c(Oc2cc(F)cc(Cl)c2)cc1F` [Compound 29, 4-(3-chloro-5-fluorophenoxy)-2,5-difluoro-N-(1,2,4-thiadiazol-5-yl)benzene-1-sulfonamide] yielded an IC50 (human Nav1.7 (hNav1.7) [1]) of 678 nM, an IC50 (human Nav1.7 (hNav1.7) [2]) of 14600 nM and an IC50 (rat Nav1.2 (rNav1.2) [3]) greater than 32000 nM. The IC50 (rat Nav1.2 (rNav1.2) [4]) was greater than 32000 nM and the IC50 (human Nav1.5 (hNav1.5) [5]) was roughly 7570 nM.

Work on `O=S(=O)(Nc1ncns1)c1cc(F)c(Oc2cc(C3CNC3)cc(C(F)(F)F)c2)cc1F` [Compound 31, 4-(3-(azetidin-3-yl)-5-(trifluoromethyl)phenoxy)-2,5-difluoro-N-(1,2,4-thiadiazol-5-yl)benzenesulfonamide] yielded an IC50 (human Nav1.7 (hNav1.7) [1]) of 286 nM, an IC50 (human Nav1.7 (hNav1.7) [2]) of 750 nM and an IC50 (rat Nav1.2 (rNav1.2) [3]) of 387 nM. The IC50 (rat Nav1.2 (rNav1.2) [4]) was roughly 1220 nM and the IC50 (human Nav1.5 (hNav1.5) [5]) was roughly 1460 nM.

`COc1cc(Oc2cc(F)c(S(=O)(=O)Nc3nc(C)ns3)cc2F)cc(C(F)(F)F)c1` [Compound 40, 2,5-difluoro-4-[3-methoxy-5-(trifluoromethyl)phenoxy]-N-(3-methyl-1,2,4-thiadiazol-5-yl)benzene-1-sulfonamide] gave an IC50 (human Nav1.7 (hNav1.7) [1]) greater than 3200 nM, an IC50 (human Nav1.7 (hNav1.7) [2]) greater than 32000 nM and an IC50 (human Nav1.5 (hNav1.5) [6]) greater than 32000 nM.

Work on `COc1cc(Oc2cc(F)c(S(=O)(=O)Nc3nc(Cc4ccccc4)ns3)cc2F)cc(C(F)(F)F)c1` [Compound 41, N-(3-benzyl-1,2,4-thiadiazol-5-yl)-2,5-difluoro-4-[3-methoxy-5-(trifluoromethyl)phenoxy]benzene-1-sulfonamide] yielded an IC50 (human Nav1.7 (hNav1.7) [1]) greater than 3200 nM, an IC50 (human Nav1.7 (hNav1.7) [2]) greater than 32000 nM and an IC50 (human Nav1.5 (hNav1.5) [6]) greater than 32000 nM.

Compound `COc1cc(Oc2cc(F)c(S(=O)(=O)Nc3nc(CN4CCOCC4)ns3)cc2F)cc(C(F)(F)F)c1` [Compound 45, 2,5-difluoro-4-[3-methoxy-5-(trifluoromethyl)phenoxy]-N-[3-(morpholin-4-ylmethyl)-1,2,4-thiadiazol-5-yl]benzene-1-sulfonamide] has an IC50 (human Nav1.7 (hNav1.7) [1]) greater than 10000 nM, an IC50 (human Nav1.7 (hNav1.7) [2]) greater than 32000 nM and an IC50 (human Nav1.5 (hNav1.5) [6]) greater than 32000 nM.

`O=S(=O)(Nc1ncns1)c1cc(F)c(Oc2cc(N3CCC3)cc(C(F)(F)F)c2)cc1F` [Compound 48, 4-[3-(azetidin-1-yl)-5-(trifluoromethyl)phenoxy]-2,5-difluoro-N-(1,2,4-thiadiazol-5-yl)benzenesulfonamide] gave an IC50 (human Nav1.7 (hNav1.7) [1]) of 142 nM, an IC50 (human Nav1.7 (hNav1.7) [2]) of roughly 3060 nM and an IC50 (human Nav1.5 (hNav1.5) [5]) of roughly 650 nM. The IC50 (human Nav1.5 (hNav1.5) [6]) was roughly 6660 nM.

Work on `O=S(=O)(Nc1ncns1)c1cc(F)c(Oc2cc(N3CC(O)C3)cc(C(F)(F)F)c2)cc1F` [Compound 49, 2,5-difluoro-4-[3-(3-hydroxyazetidin-1-yl)-5-(trifluoromethyl)phenoxy]-N-(1,2,4-thiadiazol-5-yl)benzenesulfonamide] yielded an IC50 (human Nav1.7 (hNav1.7) [1]) of 404 nM, an IC50 (human Nav1.7 (hNav1.7) [2]) of roughly 7680 nM and an IC50 (human Nav1.5 (hNav1.5) [5]) of 1600 nM. For the same compound, the IC50 (human Nav1.5 (hNav1.5) [6]) was roughly 17200 nM.

Work on `O=C(NCc1cccc(-c2cc(C(F)(F)F)cc(C(F)(F)F)c2)c1)[C@@H]1C[C@H](F)CN1` [Compound 52, (2S,4S)-N-((3′,5′-bis(trifluoromethyl)-[1,1′-biphenyl]-3-yl)methyl)-4-fluoropyrrolidine-2-carboxamide] yielded an IC50 (human Nav1.7 (hNav1.7) [1]) of 466 nM, an IC50 (human Nav1.7 (hNav1.7) [2]) of 4440 nM and an IC50 (rat Nav1.2 (rNav1.2) [3]) of 928 nM. It also gave an IC50 (rat Nav1.2 (rNav1.2) [4]) of 5540 nM, an IC50 (human Nav1.5 (hNav1.5) [5]) of 1040 nM and an IC50 (human Nav1.5 (hNav1.5) [6]) of 4050 nM.

Compound `O=C(NCc1cccc(-c2cc(C(F)(F)F)cc(C(F)(F)F)c2)c1)C1CCCC1` [Compound 56, N-({3-[3,5-bis(trifluoromethyl)phenyl]phenyl}methyl)cyclopentanecarboxamide] has an IC50 (human Nav1.7 (hNav1.7) [1]) of 173 nM, an IC50 (human Nav1.7 (hNav1.7) [2]) of 712 nM and an IC50 (rat Nav1.2 (rNav1.2) [3]) of 219 nM. For the same compound, the IC50 (rat Nav1.2 (rNav1.2) [4]) was 5850 nM and the IC50 (human Nav1.5 (hNav1.5) [5]) was 462 nM.

`N#Cc1cc(Oc2cc(C(F)(F)F)cc(C(F)(F)F)c2)ccc1S(=O)(=O)Nc1nncs1` [Example 43, 4-[3,5-bis(trifluoromethyl)phenoxy]-2-cyano-N-(1,3,4-thiadiazol-2-yl)benzene-1-sulfonamide] gave an IC50 (human Nav1.7 (hNav1.7) [1]) greater than 10000 nM, an IC50 (human Nav1.7 (hNav1.7) [2]) greater than 32000 nM and an IC50 (human Nav1.5 (hNav1.5) [6]) greater than 32000 nM.
